Literature values as cited in patent US8808735B2, “Fast wet-massing method for the preparation of calcium-containing compositions” (Takeda Nycomed AS, priority 2005, dated 2014).

Test system: fracture rate
Conditions: annual injections of 150.000-300.000 IU

For vitamin D, the overall fracture rate is given as “significant reduction”.
